Data set [1] has as its target T1, Cytochrome P450 3A4 (Homo sapiens, UniProt P08684). In words: Inhibition of human CYP3A4 in human liver microsomes assessed as formation of 6beta-hydroxy-testosterone using testosterone as substrate by high throughput mass spectrometry in absence of NADPH. It is filed as ADME, Microsome.
In data set [2] the target is T1, Cytochrome P450 3A4. In words: Inhibition of human CYP3A4 in human liver microsomes assessed as formation of 6beta-hydroxy-testosterone using testosterone as substrate by high throughput mass spectrometry preincubated for 30 mins in presence of NADPH. It is filed as ADME, Microsome.
For data set [3], the target named is Voltage-gated inwardly rectifying potassium channel KCNH2 (Homo sapiens, UniProt Q12809). In words: Binding affinity to human ERG.
Chain of Voltage-gated inwardly rectifying potassium channel KCNH2 (Q12809 whole entry): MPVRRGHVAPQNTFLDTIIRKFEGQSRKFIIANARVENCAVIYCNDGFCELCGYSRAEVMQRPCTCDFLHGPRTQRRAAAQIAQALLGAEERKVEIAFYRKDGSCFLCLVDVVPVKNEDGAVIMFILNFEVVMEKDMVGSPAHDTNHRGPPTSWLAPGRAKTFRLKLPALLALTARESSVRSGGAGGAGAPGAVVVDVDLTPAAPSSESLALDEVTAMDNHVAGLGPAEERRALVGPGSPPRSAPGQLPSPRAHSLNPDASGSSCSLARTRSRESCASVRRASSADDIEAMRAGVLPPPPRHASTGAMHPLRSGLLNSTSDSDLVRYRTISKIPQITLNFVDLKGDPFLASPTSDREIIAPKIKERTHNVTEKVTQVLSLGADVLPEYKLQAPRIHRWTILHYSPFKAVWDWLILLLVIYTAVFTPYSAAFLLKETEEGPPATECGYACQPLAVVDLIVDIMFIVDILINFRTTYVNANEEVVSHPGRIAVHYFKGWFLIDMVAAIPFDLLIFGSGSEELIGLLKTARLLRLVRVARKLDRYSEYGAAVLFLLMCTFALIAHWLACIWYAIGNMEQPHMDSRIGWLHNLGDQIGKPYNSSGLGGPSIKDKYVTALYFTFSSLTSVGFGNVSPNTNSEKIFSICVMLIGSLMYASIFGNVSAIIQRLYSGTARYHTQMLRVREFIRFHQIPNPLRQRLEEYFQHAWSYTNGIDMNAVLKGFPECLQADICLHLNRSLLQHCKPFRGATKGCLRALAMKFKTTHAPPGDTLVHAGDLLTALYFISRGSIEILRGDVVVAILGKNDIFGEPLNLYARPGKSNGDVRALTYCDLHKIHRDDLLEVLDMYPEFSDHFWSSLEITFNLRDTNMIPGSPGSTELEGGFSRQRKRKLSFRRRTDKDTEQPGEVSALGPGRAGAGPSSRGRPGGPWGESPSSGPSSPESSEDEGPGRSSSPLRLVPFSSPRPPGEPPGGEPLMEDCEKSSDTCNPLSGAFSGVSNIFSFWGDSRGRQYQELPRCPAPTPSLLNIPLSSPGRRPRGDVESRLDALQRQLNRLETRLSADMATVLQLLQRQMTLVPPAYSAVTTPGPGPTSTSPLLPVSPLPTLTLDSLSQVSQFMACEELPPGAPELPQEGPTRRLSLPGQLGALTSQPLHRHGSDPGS
Data set [4] deals with T2, Renin (Homo sapiens, UniProt P00797).
T2 sequence (P00797 whole entry): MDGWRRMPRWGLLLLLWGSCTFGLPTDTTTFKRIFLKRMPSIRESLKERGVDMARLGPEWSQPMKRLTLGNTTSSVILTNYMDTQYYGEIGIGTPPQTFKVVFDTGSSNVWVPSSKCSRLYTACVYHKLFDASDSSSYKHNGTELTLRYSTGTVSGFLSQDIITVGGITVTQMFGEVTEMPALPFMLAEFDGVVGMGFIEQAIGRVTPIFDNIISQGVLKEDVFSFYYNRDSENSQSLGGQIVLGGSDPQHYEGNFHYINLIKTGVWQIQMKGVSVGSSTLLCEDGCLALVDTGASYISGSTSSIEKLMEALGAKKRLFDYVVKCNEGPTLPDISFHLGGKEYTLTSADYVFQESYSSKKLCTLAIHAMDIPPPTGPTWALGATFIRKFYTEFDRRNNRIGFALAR
Briefly: Inhibition of human recombinant renin in PBS buffer using tetradecapeptide at pH 7.4.

For data set [5], the target named is T2, Renin. In words: Inhibition of human recombinant renin in human citreated-plasma.
A short description of data set [6]: Oral bioavailability in Sprague-Dawley rat at 30 mg/kg as 0.5% methocel suspension. As to conditions: in vivo. The data set is classed as ADME, organism-based.
Data set [7] is described as follows: Clearance in Sprague-Dawley rat at 30 mg/kg, po in 0.5% methocel and 3 to 5 mg/kg, iv in 60% PEG 200. To be noted: in vivo.
The nature of data set [8]: AUC (0 to 24 hrs) in Sprague-Dawley rat at 30 mg/kg, po as 0.5% methocel suspension. The data set is classed as ADME, organism-based. Further details: time < 24 hr, dose 30 mg/kg, route oral. To be noted: plasma.

These results are taken from ChEMBL document CHEMBL1759994, “The discovery and synthesis of potent zwitterionic inhibitors of renin” (Bioorg Med Chem Lett, 2011).

pIC50, pKi: −log10 of the molar value.

T1 sequence (P08684 whole entry): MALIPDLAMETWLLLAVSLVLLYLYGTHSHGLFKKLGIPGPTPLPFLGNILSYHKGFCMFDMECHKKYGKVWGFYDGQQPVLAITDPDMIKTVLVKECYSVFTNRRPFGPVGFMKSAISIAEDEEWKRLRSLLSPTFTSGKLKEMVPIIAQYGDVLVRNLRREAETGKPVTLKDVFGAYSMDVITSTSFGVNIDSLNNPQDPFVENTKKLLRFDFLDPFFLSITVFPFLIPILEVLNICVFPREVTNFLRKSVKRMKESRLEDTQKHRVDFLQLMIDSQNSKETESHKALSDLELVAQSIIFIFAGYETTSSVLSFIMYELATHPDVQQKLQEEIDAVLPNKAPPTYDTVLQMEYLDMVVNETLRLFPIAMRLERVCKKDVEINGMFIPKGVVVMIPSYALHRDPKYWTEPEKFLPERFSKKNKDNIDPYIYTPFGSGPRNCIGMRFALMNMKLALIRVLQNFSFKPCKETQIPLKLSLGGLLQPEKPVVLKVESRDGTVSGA

On to `COCCCc1cc(CN(C(=O)[C@H]2CNCC[C@@H]2c2ccc(OCCOc3c(Cl)cc(C)cc3Cl)cc2)C2CC2)cc(OCCOC)c1`, for which the pIC50 at Cytochrome P450 3A4 [1] is 4.67; at Cytochrome P450 3A4 [2], 5.62. Moreover, the negative logarithm of the Ki (pKi) in data set [3] is 7.10.
The corresponding values for `COCCCc1cc(CN(C(=O)[C@H]2CNCC[C@@H]2c2ccc(OCCOc3c(Cl)cc(C)cc3Cl)cc2)C2CC2)cc(OCCN(C)C)c1` are 4.64, 5.85 and 6.74.
Turning to `COCCCc1cc(CN(C(=O)[C@H]2CNCC[C@@H]2c2ccc(OCCOc3c(Cl)cc(C)cc3Cl)cc2)C2CC2)cc(OCCCNS(C)(=O)=O)c1`, the pIC50 was 10.55 at Renin [4] and 8.54 at Renin [5]. This compound had a pKi in data set [3] of 7.10.
On to `COCCCc1cc(CN(C(=O)[C@H]2CNCC[C@@H]2c2ccc(OCCOc3c(Cl)cc(C)cc3Cl)cc2)C2CC2)cc(OCC(C)(C)O)c1`, for which the results for the negative logarithm of the IC50 (pIC50) on Cytochrome P450 3A4 [1] and on Cytochrome P450 3A4 [2] were less than 4.30 and 5.25, respectively. For the same compound, the pKi in data set [3] is 6.89.
In the case of `COCCCc1cc(CN(C(=O)[C@H]2CNCC[C@@H]2c2ccc(OCCOc3c(Cl)cc(C)cc3Cl)cc2)C2CC2)cc(OCC2(CC(=O)O)CC2)c1`, the bioavailability in data set [6] came to 2%. In data set [7], the clearance stood at 49 mL/min/kg. Moreover, the pIC50 was less than 4.30 at Cytochrome P450 3A4 [1], 10.40 on Renin [4] and less than 4.30 at Cytochrome P450 3A4 [2]. This compound had an AUC(0-t) at 24 h in data set [8] of 0.2 µM·h. The compound also showed a pKi in data set [3] of 6.00.
In data set [6], `COCCCc1cc(CN(C(=O)[C@H]2CNCC[C@@H]2c2ccc(OCCOc3c(Cl)cc(C)cc3Cl)cc2)C2CC2)cc(OCC(C)(C)C(=O)O)c1` gave a bioavailability of 9%. The same compound displayed a clearance in data set [7] of 44 mL/min/kg. The pIC50 is less than 4.30 on Cytochrome P450 3A4 [1], 10.22 at Renin [4], 7.53 at Renin [5] and less than 4.30 on Cytochrome P450 3A4 [2]. In addition, the AUC(0-t) at 24 h in data set [8] worked out at 1.1 µM·h. The same compound gave a negative logarithm of the Ki (pKi) in data set [3] of 6.22.
Consider `COCCCc1cc(CN(C(=O)[C@H]2CNCC[C@@H]2c2ccc(OCCOc3c(Cl)cc(C)cc3Cl)cc2)C2CC2)cc(OCCC(C)(C)C(=O)O)c1`, for which the bioavailability in data set [6] is 13%. In data set [7], this compound had a clearance of 43 mL/min/kg. In addition, the pIC50 was less than 4.30 at Cytochrome P450 3A4 [1], 10.70 at Renin [4], 8.05 on Renin [5] and less than 4.30 on Cytochrome P450 3A4 [2]. The same compound came in with an AUC(0-t) at 24 h in data set [8] of 2.1 µM·h. In data set [3], this compound showed a pKi of 6.40.
As to `COCCCc1cc(CN(C(=O)[C@H]2CNCC[C@@H]2c2ccc(OCCOc3c(Cl)cc(C)cc3Cl)cc2)C2CC2)cc(OCCCC(C)(C)C(=O)O)c1`, the bioavailability in data set [6] came to 22%. This compound showed a clearance in data set [7] of 9.7 mL/min/kg. In addition, the pIC50 on Cytochrome P450 3A4 [1] was less than 4.30; on Renin [4] it was 11.00; at Renin [5] it was 8.21; on Cytochrome P450 3A4 [2] it was less than 4.30. In addition, in data set [8], the area under the curve AUC(0-t) at 24 h was 16 µM·h. The pKi in data set [3] was 6.70.
Turning to `CCC(CC)(CCOc1cc(CCCOC)cc(CN(C(=O)[C@H]2CNCC[C@@H]2c2ccc(OCCOc3c(Cl)cc(C)cc3Cl)cc2)C2CC2)c1)C(=O)O`, the bioavailability in data set [6] turned out to be 26%. This compound showed a clearance in data set [7] of 29 mL/min/kg. In addition, the pIC50 at Cytochrome P450 3A4 [1] and at Cytochrome P450 3A4 [2] was less than 4.30 in each case. Moreover, the AUC(0-t) at 24 h in data set [8] amounted to 6.1 µM·h. In data set [3], this compound showed a pKi of 6.40.
The compound `COCCCc1cc(CN(C(=O)[C@H]2CNCC[C@@H]2c2ccc(OCCOc3c(Cl)cc(C)cc3Cl)cc2)C2CC2)cc(OC[C@H]2C[C@@H]2C(=O)NS(C)(=O)=O)c1` yielded a bioavailability in data set [6] of 0%. This compound also had a clearance in data set [7] of 26 mL/min/kg. The pIC50 on Cytochrome P450 3A4 [1] is less than 4.30; on Renin [4], 11.00; on Renin [5] it was 8.68; on Cytochrome P450 3A4 [2], less than 4.30. This compound also had a pKi in data set [3] of 6.30.
In data set [6], `COCCCc1cc(CN(C(=O)[C@H]2CNCC[C@@H]2c2ccc(OCCOc3c(Cl)cc(C)cc3Cl)cc2)C2CC2)cc(OCC2(Cc3nn[nH]n3)CC2)c1` returned a bioavailability of 0%. This compound returned a clearance in data set [7] of 46 mL/min/kg. Also, the negative logarithm of the IC50 (pIC50) on Cytochrome P450 3A4 [1] was less than 4.30; on Renin [5] it was 8.28; at Cytochrome P450 3A4 [2], less than 4.30. Also, the pKi in data set [3] was 6.30.
